Broadly, the EC50 is the concentration at which the effect is half-maximal. High values mean lower potency in that assay, low ones higher potency in that assay.

29 molecules from BindingDB's records for doi:10.1021/jm051146h (Conforma Therapeutics, 2006) can be followed below.

One assay deals with Heat shock protein HSP 90-beta (Homo sapiens, UniProt P08238). As to the kind of experiment: Her-2 Degradation Assay.
Heat shock protein HSP 90-beta, sequence (P08238 whole entry): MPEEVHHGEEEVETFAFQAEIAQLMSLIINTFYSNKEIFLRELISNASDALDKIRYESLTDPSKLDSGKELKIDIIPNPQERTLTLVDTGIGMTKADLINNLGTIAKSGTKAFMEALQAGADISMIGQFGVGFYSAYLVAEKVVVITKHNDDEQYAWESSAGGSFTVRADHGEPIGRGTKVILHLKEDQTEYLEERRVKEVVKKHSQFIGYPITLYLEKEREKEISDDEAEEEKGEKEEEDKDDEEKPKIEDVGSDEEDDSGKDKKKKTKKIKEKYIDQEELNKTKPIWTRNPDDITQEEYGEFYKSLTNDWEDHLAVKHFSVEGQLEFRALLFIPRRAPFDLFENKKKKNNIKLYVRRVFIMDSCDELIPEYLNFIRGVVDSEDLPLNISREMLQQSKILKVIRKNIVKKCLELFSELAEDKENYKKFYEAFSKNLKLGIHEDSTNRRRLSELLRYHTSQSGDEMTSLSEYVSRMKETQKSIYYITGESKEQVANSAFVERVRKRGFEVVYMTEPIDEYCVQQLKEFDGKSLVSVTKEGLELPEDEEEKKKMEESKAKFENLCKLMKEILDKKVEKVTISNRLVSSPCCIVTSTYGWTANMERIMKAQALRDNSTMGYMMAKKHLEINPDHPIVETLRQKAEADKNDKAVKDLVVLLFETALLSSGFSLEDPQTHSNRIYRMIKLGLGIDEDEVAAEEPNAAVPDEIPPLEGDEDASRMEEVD
Details: not given
Here is the method:
A fluorescence histogram was generated, and the mean fluorescence intensity (MFI) of each sample was determined using Cellquest software.
`CC(C)(C)NCCCn1c(Sc2nc3cccc(Cl)c3s2)nc2c(N)ncnc21` [9-[3-(tert-butylamino)propyl]-8-[(7-chloro-1,3-benzothiazol-2-yl)sulfanyl]-9H-purin-6-amine] showed an EC50 of 150 nM. That is a sub-micromolar value.

In the case of `Nc1ncnc2c1nc(Sc1nc3cccc(Cl)c3s1)n2CCNC1CC1` [8-[(7-chloro-1,3-benzothiazol-2-yl)sulfanyl]-9-[2-(cyclopropylamino)ethyl]-9H-purin-6-amine], a half-maximal effect (EC50) was put at 110 nM.

`CCCCn1c(Sc2nc3cncc(Cl)c3s2)nc2c(N)ncnc21` [9-butyl-8-({7-chloropyrido[3,4-d][1,3]thiazol-2-yl}sulfanyl)-9H-purin-6-amine]: the response was half-maximal at 280 nM (EC50).

`CC(C)(C)CNCCn1c(Sc2nc3cccc(Cl)c3s2)nc2c(N)ncnc21` returned an EC50 of 35 nM.

The molecule `CC(C)(C)NCCn1c(Sc2nc3cccc(Cl)c3s2)nc2c(N)ncnc21` [9-[2-(tert-butylamino)ethyl]-8-[(7-chloro-1,3-benzothiazol-2-yl)sulfanyl]-9H-purin-6-amine] came in with a concentration giving a half-maximal response (EC50) of 140 nM.

In turn, `CC(=O)OCCCn1c(Sc2nc3cncc(Cl)c3s2)nc2c(N)ncnc21` [3-[6-amino-8-({7-chloropyrido[3,4-d][1,3]thiazol-2-yl}sulfanyl)-9H-purin-9-yl]propyl acetate] yielded a concentration giving a half-maximal response (EC50) of 170 nM.

For the molecule `CCCCn1c(Sc2nc3cncc(Br)c3s2)nc2c(N)ncnc21` [8-({7-bromopyrido[3,4-d][1,3]thiazol-2-yl}sulfanyl)-9-butyl-9H-purin-6-amine], it took 400 nM to reach a half-maximal effect (EC50).

`CC(C)NCCCn1c(Sc2nc3cccc(Cl)c3s2)nc2c(N)ncnc21` [8-[(7-chloro-1,3-benzothiazol-2-yl)sulfanyl]-9-[3-(propan-2-ylamino)propyl]-9H-purin-6-amine] registered an EC50 of 170 nM.

Still in this assay, the particulars now being: pH 7.2; 37 °C.
The molecule `CCCCn1c(Sc2nc3cccc(C)c3s2)nc2c(N)ncnc21` [9-butyl-8-[(7-methyl-1,3-benzothiazol-2-yl)sulfanyl]-9H-purin-6-amine] had an EC50 of 300 nM.

The molecule `CCCCn1c(Sc2nc3cccc(OC)c3s2)nc2c(N)ncnc21` [9-butyl-8-[(7-methoxy-1,3-benzothiazol-2-yl)sulfanyl]-9H-purin-6-amine] returned a half-maximal effective concentration (EC50) of 190 nM.

In the case of `CCCCn1c(Sc2nc3cccc(Cl)c3s2)nc2c(N)ncnc21`, it took 180 nM to reach a half-maximal effect (EC50). This EC50 and that of the molecule before are within 1.5-fold of each other.

`CC(=O)OCCCn1c(Sc2nc3cccc(Cl)c3s2)nc2c(N)ncnc21` [3-{6-amino-8-[(7-chloro-1,3-benzothiazol-2-yl)sulfanyl]-9H-purin-9-yl}propyl acetate] returned an EC50 of 90 nM.

`CCCCn1c(Sc2nc3ccc(Cl)cc3s2)nc2c(N)ncnc21` [9-butyl-8-[(6-chloro-1,3-benzothiazol-2-yl)sulfanyl]-9H-purin-6-amine] showed a 50% effective concentration (EC50) of 7000 nM.

In the case of `CCCCn1c(Sc2nc3ccccc3s2)nc2c(N)ncnc21` [8-(1,3-benzothiazol-2-ylsulfanyl)-9-butyl-9H-purin-6-amine], the midpoint of the response, the EC50, lay at 5000 nM. This EC50 and that of the molecule before are within 1.5-fold of each other.

`CCCCn1c(Sc2nc3ccc(Cl)c(Cl)c3s2)nc2c(N)ncnc21` [9-butyl-8-[(6,7-dichloro-1,3-benzothiazol-2-yl)sulfanyl]-9H-purin-6-amine] returned an EC50 of 25000 nM.

As to `CCCCn1c(Sc2nc3cccc(Br)c3s2)nc2c(N)ncnc21` [8-[(7-bromo-1,3-benzothiazol-2-yl)sulfanyl]-9-butyl-9H-purin-6-amine], the EC50 is 330 nM.

Take `N#CCCCCn1c(Sc2nc3cccc(Cl)c3s2)nc2c(N)ncnc21` [5-{6-amino-8-[(7-chloro-1,3-benzothiazol-2-yl)sulfanyl]-9H-purin-9-yl}pentanenitrile]: a half-maximal effect (EC50) was put at 110 nM.

`CCCCn1c(Sc2nc3cccc(OCC)c3s2)nc2c(N)ncnc21` [9-butyl-8-[(7-ethoxy-1,3-benzothiazol-2-yl)sulfanyl]-9H-purin-6-amine] came in with an EC50 of 100000 nM.

`Nc1ncnc2c1nc(Sc1nc3cccc(Cl)c3s1)n2CCO` [2-{6-amino-8-[(7-chloro-1,3-benzothiazol-2-yl)sulfanyl]-9H-purin-9-yl}ethan-1-ol] came in with a concentration for a half-maximal effect (EC50) of 300 nM.

Consider `CC(=O)OCCn1c(Sc2nc3cccc(Cl)c3s2)nc2c(N)ncnc21` [2-{6-amino-8-[(7-chloro-1,3-benzothiazol-2-yl)sulfanyl]-9H-purin-9-yl}ethyl acetate], for which the EC50 came to 150 nM.

On to `CCCCCn1c(Sc2nc3cccc(Cl)c3s2)nc2c(N)ncnc21` [8-[(7-chloro-1,3-benzothiazol-2-yl)sulfanyl]-9-pentyl-9H-purin-6-amine], for which the EC50 stood at 700 nM.

`CCCCn1c(Sc2nc3c(Cl)cccc3s2)nc2c(N)ncnc21` [9-butyl-8-[(4-chloro-1,3-benzothiazol-2-yl)sulfanyl]-9H-purin-6-amine] came in with an EC50 of 15000 nM. Against the preceding molecule, the EC50 is about 21-fold higher.

In turn, `Nc1ncnc2c1nc(Sc1nc3cccc(Cl)c3s1)n2CCCO` [3-{6-amino-8-[(7-chloro-1,3-benzothiazol-2-yl)sulfanyl]-9H-purin-9-yl}propan-1-ol] displayed an EC50 of 150 nM.

`Nc1ncnc2c1nc(Sc1nc3cccc(Cl)c3s1)n2CCN1CCOCC1` [8-[(7-chloro-1,3-benzothiazol-2-yl)sulfanyl]-9-[2-(morpholin-4-yl)ethyl]-9H-purin-6-amine]: a half-maximal effect (EC50) was put at 250 nM.

Turning to `CC(=O)OCCCCn1c(Sc2nc3cccc(Cl)c3s2)nc2c(N)ncnc21` [4-{6-amino-8-[(7-chloro-1,3-benzothiazol-2-yl)sulfanyl]-9H-purin-9-yl}butyl acetate], the concentration for a half-maximal effect (EC50) was found to be 130 nM. Against the preceding molecule, the EC50 is about 1.9-fold lower.

The molecule `CCCCn1c(Sc2nc3cccc(F)c3s2)nc2c(N)ncnc21` [9-butyl-8-[(7-fluoro-1,3-benzothiazol-2-yl)sulfanyl]-9H-purin-6-amine] had an EC50 of 200 nM.

On to `CCn1c(Sc2nc3cccc(Cl)c3s2)nc2c(N)ncnc21` [8-[(7-chloro-1,3-benzothiazol-2-yl)sulfanyl]-9-ethyl-9H-purin-6-amine], for which the 50% effective concentration (EC50) was 200 nM. This counts as sub-micromolar.

In turn, `CCCn1c(Sc2nc3cccc(Cl)c3s2)nc2c(N)ncnc21` [8-[(7-chloro-1,3-benzothiazol-2-yl)sulfanyl]-9-propyl-9H-purin-6-amine] came in with a concentration giving a half-maximal response (EC50) of 250 nM.

As to `Nc1ncnc2c1nc(Sc1nc3cccc(Cl)c3s1)n2CCCCO` [4-{6-amino-8-[(7-chloro-1,3-benzothiazol-2-yl)sulfanyl]-9H-purin-9-yl}butan-1-ol], a half-maximal response (EC50) required 150 nM.
